Test results as given in paper PMC7109127 (British Journal of Cancer, 2020).
Values joined by “and” are separate entries in the source; they are usually repeats but may differ in a detail not shown here. Equal entries are not always repeated. Where two headings read alike, the source gives them in different places.

Columns and labels:
CYP3A4 = details: background statement; cited from earlier work
[1] = phase 1b/2 study, safety, DLT and MTD/RP2D (CTCAE v4.0)
Procedure: The RP2D was defined as the MTD.
The treatment schedule was modified as there was concern on tolerability of longer dosing in patients with underlying cirrhosis. […] Study treatment was continued until disease progression or unacceptable toxicity.
Safety assessments were done at baseline, on cycle 1 days 1 and 15, and on day 1 of each cycle thereafter. Tumour assessments were performed by computed tomography or magnetic resonance imaging at baseline and every 8 weeks thereafter. Confirmatory imaging was performed within 6 weeks in patients with complete response or partial response. AEs were assessed using the National Cancer Institute Common Terminology Criteria for Adverse Events (CTCAE) v4.0. Blood sample collection for pharmacokinetic (PK) and pharmacodynamic (PD) analysis was performed on cycle 1 days 1 and 15 pre-dose as well as 2 and 4 h post dose.

sVEGFR-2 [2] = assay: phase 1b/2 study, pharmacodynamics: plasma sVEGFR-2 by ELISA; type: in vivo, Human; details: for sVEGFR-2, median percent decrease from baseline: day 15
Procedure: For sVEGFR-2, plasma EDTA samples (220 μL) were analysed in duplicate using a commercially available enzyme-linked immunosorbent assay (Quantikine® ELISA Human VEGFR-2/KDR immunoassay, R&D Systems® Inc., Minneapolis, MN) that was validated according to the FDA guidance. A Tomtec Quadra 4 (Tomtec Inc., Hamden, CT) liquid handling robot was used to transfer all solutions to the 96-well plate to eliminate time-dependent variability associated with manual pipetting. After the addition of the Stop Solution in the final step, the absorbance of each well was measured at 450 and 540 nm on a Synergy HT plate reader (BioTek Instruments, Winooski, VT). The readings at 540 nm were subtracted from the absorbance readings at 450 nm to correct for any optical imperfections in the 96-well plate. Sample concentrations were back-calculated against calibration curves (80.0–5000 pg/mL) that were generated based on a 4-parameter fit of absorbance vs. nominal concentrations (pg/mL) using the Gen 5 software (BioTek Instruments).

sVEGFR-2 [3] = details: by day 27; 1 mg daily cohort; cited from earlier work
[4] = cited from earlier work; for mean AUC0–24 / median tmax: all solid tumours, 1 mg
advanced HCC = assay: phase 1b/2 study, antineoplastic efficacy (RECIST 1.1, PFS, OS); type: in vivo, patients
Procedure: This was a phase 1b/2, open-label, single-arm multicentre clinical trial. Subjects were accrued at Roswell Park Comprehensive Cancer Centre (RPCI) and Case Comprehensive Cancer Centre. The respective institutional review board (IRB) approved the protocol at each site. The study was conducted according to the principles of the Declaration of Helsinki, the International Conference on Harmonisation and the Guidelines for Good Clinical Practice. All patients provided written informed consent. The trial was registered with ClinicalTrials.gov (NCT01835223).
Secondary objectives included determination of safety and the PK/PD of tivozanib in patients with advanced HCC. The primary endpoint was PFS at 24 weeks. PFS and not ORR were selected because at the time of study inception PFS or time to progression were acceptable primary efficacy endpoints in early phase HCC studies in view of very low ORR with anti-VEGFR agents. Patients who remained alive and without evidence of disease progression per RECIST 1.1 for at least 24 weeks after enrolment were considered as PFS responders. Secondary endpoints were AEs by CTCAE v4.0, steady state PK, ORR, OS, change in HBV or HCV viral load, serum α-fetoprotein (AFP), and changes in soluble VEGFR-2 (sVEGFR-2).
Using the 3+3 design, the MTD was the DL with probability of DLT 33% or higher. With three dose levels, between 6 and 18 patients were required to complete the phase 1b portion. In terms of antineoplastic efficacy, the true progression rate of less than p0 = 0.50 was considered unacceptable and evidence of such will deem the treatment not worthy of further study. The null and alternative hypotheses tested were H0: p = p0 vs. H1: p > p0. With this two-stage design, a potential total of 37 patients was required to achieve 80% power to detect a difference of at least 20% with a type I error of 5%. Using a two-stage design, a total of 19 patients were planned to be enrolled initially, including the phase 1b patients treated at the MTD/RP2D. If nine or fewer PFS responses were observed, the therapy would be deemed ineffective and the study would end. Otherwise, an additional 18 patients would be enrolled. If 23 or fewer PFS responses are observed in the total efficacy population, therapy would be deemed ineffective; otherwise, it will be concluded that the therapy is promising. The differences on outcomes between study groups were compared by non-parametric Kruskal–Wallis test and Fisher’s/χ^2 test. OS and PFS were estimated by the Kaplan–Meier method and compared by log-rank test. All tests were two sided and performed at a nominal significance level of 0.05. SAS version 9.4 (SAS Institute, Cary, NC) is used for statistical analyses.

[5] = healthy volunteers; cited from earlier work
[6] = RP2D 1 mg, efficacy population N = 19

COc1cc2nccc(Oc3ccc(NC(=O)Nc4cc(C)on4)c(Cl)c3)c2cc1OC [tivozanib]
interaction with CYP3A4 inhibitors (CYP3A4): no interaction | deaths due to toxicity ([1]; 27 patients): No deaths due to toxicity | MTD/RP2D ([1]; per os once daily, 21 days on–7 days off, advanced HCC): 1 mg | viral loads ([1]; two HBV-positive and three HCV-positive patients): remained stable | sVEGFR-2, median pre-dose level (sVEGFR-2 [2]; cycle 1 day 1): 8.64 µg/L | sVEGFR-2, median pre-dose level (sVEGFR-2 [2]; cycle 1 day 15): 5.37 µg/L | sVEGFR-2, median percent decrease from baseline (sVEGFR-2 [2]; PFS responders): 32.4% | sVEGFR-2, median percent decrease from baseline (sVEGFR-2 [2]; PR by RECIST 1.1): 30.9% | sVEGFR-2, median percent decrease from baseline (sVEGFR-2 [2]; SD by RECIST 1.1): 40.5% | sVEGFR-2, median percent decrease from baseline (sVEGFR-2 [2]; all patients): 31.1% | sVEGFR-2, median percent decrease from baseline (sVEGFR-2 [2]; not PFS responders): 30.1% | sVEGFR-2, median percent decrease from baseline (sVEGFR-2 [2]; progressive disease (PD) by RECIST 1.1): 27.4% | sVEGFR-2 decrease from baseline (sVEGFR-2 [3]): 28% | mean AUC0–24 ([4]; multiple doses): 856 ng·h/mL | median tmax ([4]; multiple doses): 4.01 h | mean AUC0–24 ([4]; single dose): 131.2 ng·h/mL | median tmax ([4]; single dose): 6.01 h | half-life [4]: 88.8 to 113 h | 24-week PFS probability (advanced HCC; Kaplan–Meier, N = 19): 58% | 1-year OS rate (advanced HCC; N = 19): 40% | 2-year OS rate (advanced HCC; N = 19): 30% | overall disease control rate (advanced HCC; RECIST 1.1, N = 19): 63% | PFS responders at 24 weeks (6-month PFS) (advanced HCC; RP2D 1 mg, N = 19): 47.3% | overall response rate (PR, RECIST 1.1) (advanced HCC; RP2D 1 mg, N = 19): 21% | median OS (advanced HCC; [6]): 9 months and 9.0 months | median PFS (advanced HCC; [6]): 24 weeks | difference in total drug exposure with food consumption [5]: did not show a difference
